Legend:
U14 tumor cells = experiment: Inhibition of U14 tumor implanted in mice; conditions: for inhibition (%) / quotient of noumenal tumor (%): U14 implanted mice; for quotient of noumenal tumor (%): ±SD
Experimental: Thus, the inhibition of tumor cells by the said oligosaccharides was tested using implanted tumor cells in mice. • (1) Tests of the said Oligosaccharides and their Sulfates on Mice in which Tumor Cells were Implanted. A. Materials and Methods
Cell line for the tests: U14 cell line was procured from The Tumor Research Group, The Institute of Chinese Herbal Medicine, Chinese Academy of Traditional Chinese Medicine;
Animals for the tests: 70 Kunming male mice (weight 20±2 g, grade II) were obtained from the Experimental Animal Center, the Chinese Academy of Medicine.
Medicine for control test: Cyclophosphamide was obtained from Shanghai Hualian Pharmaceutical Ltd, permit number 012034, 1995, Shanghai.
Mice grouping and administration: • a. U14 cell line group: physical saline, IP, 0.2 mL/d×10 d • b. Group treated with hexasaccharide 18: IP 10 mg/kg×10 d, 0.2 mL/d • c. Group treated with octyl hexaoside 18′: IP 10 mg/kg×10 d, 0.2 mL/d • d. Group treated with heptasaccharide 24: IP 10 mg/kg×10 d, 0.2 mL/d • e. Group treated with sulfated hexaose 25: IP 10 mg/kg×10 d, 0.2 mL/d • f. Group treated with cyclophosphamide: IP, 70 mg/kg×10 d, 0.1 mL/d (Cyclophosphamide was given to the mice by intraperitoneal at 24 h after the planting. After 48 h of the 1st injection, the 2nd injection was given, and after 48 h of the 2nd injection, the last injection was given). Test: U14 cells obtained from U14 mouse were diluted and counted. Each mouse was implanted with 0.2 ml (corresponding to 4×10^6 cells). A total of sixty mice were implanted. B. Test Results
1 h post administration of the last dose, the mice were weighed. The right-upper arm of the mice was cut after sterilization, and the tumor section was removed. The quotient of noumenal tumor (%) and inhibition (%) were calculated.

spleen B lymphocytes = experiment: Immune enhancing activity: 3H-thymidine incorporation of spleen B lymphocytes from treated C57 mice, stimulated with Bal/bc lymphocytes; format: in vivo; conditions: 0.1 mL/d × 8d
Experimental: a. Medicine and reagents: synthetic lentinan hexaose 18, synthetic lentinan methyl α-heptaoside 24, synthetic lentinan octyl hexaoside 18′, lentinan (brand: Tian Di Xin) is produced by Nanjing Zhenzhong Biotech Ltd.
b. Animals: C57 mice were provided by Animal Center, Academia Sinica, weighing 20±2 g.
c. grouping and administration: the 50 mice were randomly allocated to 10 groups according to weight
The mice were injected IP with different doses of lentinan oligosaccharides listed above. […] Then the spleen B lymphocytes were extracted. The following experiment was then performed with the extracted lymphocytes: the 10^6 B cells were transferred to 96-well “U” shaped bottom plate, then the lymphocytes of Bal/bc mice were used as antigens to stimulate the B cells. After 4 days, ^3H-Thymidine was intermingled with the system and the B cells were collected 18 hours after. The isotopic incorporation was assessed by scintillation counting. Compared with positive control and minus control, the immuno-enhanced effect of these oligosaccharides was evaluated.

[1] = system: leukocyte infiltrate in air pouch; experiment: Thioglycollate-induced air pouch inflammation in mice; format: in vivo, mouse; conditions: dose 25 mg/kg subq.
Experimental: Test method: Subcutaneous air pouches were formed on the backs of mice by injecting 5 mL of sterile air below the skin of a shaved area between the scapulae of an anaesthetized mouse. After 2 days post-injection the pouch was reinflated by the injection of 2.5 mL of air. Inflammation was induced on day 6 by injecting directly into the pouch 1.0 mL of 56 mg/mL thioglycollate or 1.0 mL of saline as a control. Approximately 17-20 h after thioglycollate injection, the animals were killed, and the cellular contents of the pouch retrieved by the injection of 2.5 mL of PBS/5% FCS. The sulfated octyl hexaoside 25 was tested for its ability to inhibit the inflammatory reaction by being injected subq. in a separate site immediately following administration of the thioglycollate. Prednisolone was used as a control anti-inflammatory drug, and was injected subq. at 25 mg/kg. The total cellular contents of each pouch were determined using a Coulter Counter and different leukocyte subpopulations were assessed by immunofluorescent flow cytometry.

[2] = IP 10 mg/kg×10 d (dose of 17 not given)
[3] = IP 10 mg/kg, relative to control

CCCCCCCCOC1OC(COC2OC(CO)C(O)C(O)C2O)C(O)C(OC2OC(CO)C(O)C(OC3OC(COC4OC(CO)C(O)C(O)C4O)[C@@H](O)C(OC4OC(CO)C(O)C(O)C4O)C3O)C2O)C1O (stereo partly shown) [18′]
inhibition (%) (U14 tumor cells; [2]): 58.43%
quotient of noumenal tumor (%) (U14 tumor cells; [2]): 1.54 ± 0.56 %
3H-TdR incorporation (spleen B lymphocytes; IP 1 mg/kg, control 3394): 5547
enhancement rate (%) (spleen B lymphocytes; IP 1 mg/kg, control = 100): 163%
3H-TdR incorporation (spleen B lymphocytes; IP 10 mg/kg, control 3045): 6082
enhancement rate (%) (spleen B lymphocytes; [3]): 200%

OCC1OC(OCC2OC(O)C(O)C(OC3OC(CO)C(O)C(OC4OC(COC5OC(CO)C(O)C(O)C5O)[C@@H](O)C(OC5OC(CO)C(O)C(O)C5O)C4O)C3O)C2O)C(O)C(O)C1O (stereo partly shown) [compound 18]
inhibition (%) (U14 tumor cells; [2]): 29.41%
quotient of noumenal tumor (%) (U14 tumor cells; [2]): 2.63 ± 0.90%
3H-TdR incorporation (spleen B lymphocytes; IP 1 mg/kg, control 3394): 5497
enhancement rate (%) (spleen B lymphocytes; IP 1 mg/kg, control = 100): 162%
3H-TdR incorporation (spleen B lymphocytes; IP 10 mg/kg, control 3045): 6084
enhancement rate (%) (spleen B lymphocytes; [3]): 200%

COC1OC(CO)[C@@H](O)C(O[C@H]2OC(CO[C@@H]3OC(CO)[C@@H](O)C(O)C3O)[C@@H](O)C(O[C@@H]3OC(CO)[C@@H](O)C(O[C@H]4OC(CO[C@@H]5OC(CO)[C@@H](O)C(O)C5O)[C@@H](O)C(O[C@@H]5OC(CO)[C@@H](O)C(O)C5O)C4O)C3O)C2O)C1O (stereo partly shown) [compound 24]
inhibition (%) (U14 tumor cells; [2]): 41.21%
quotient of noumenal tumor (%) (U14 tumor cells; [2]): 2.54 ± 1.89%
3H-TdR incorporation (spleen B lymphocytes; IP 1 mg/kg, control 3394): 5546
enhancement rate (%) (spleen B lymphocytes; IP 1 mg/kg, control = 100): 163%
3H-TdR incorporation (spleen B lymphocytes; IP 10 mg/kg, control 3045): 5087
enhancement rate (%) (spleen B lymphocytes; [3]): 167%

O=P1(N(CCCl)CCCl)NCCCO1 (stereo not shown) [cyclophosphamide, Cyclophosphamide, reference compound]
inhibition (%) (U14 tumor cells; cyclophosphamide IP 70 mg/kg): 43.89%
quotient of noumenal tumor (%) (U14 tumor cells; cyclophosphamide IP 70 mg/kg): 1.86 ± 0.73 %
weight (U14 tumor cells; mouse weight 1 h after last dose, cyclophosphamide IP 70 mg/kg): 28.00 ± 1.78 g

C[C@]12C=CC(=O)C=C1CC[C@@H]1[C@@H]2[C@@H](O)C[C@@]2(C)[C@H]1CC[C@]2(O)C(=O)CO [prednisolone, Prednisolone]
leukocyte infiltrate in air pouch in comparison to the control [1]: 56±14%
